Series [1] in a line: recombinant barcode read abundance after kanamycin selection (control-corrected) (log10(CPM+1)); higher = more efficient recombination; sequences stand for … in AGTGCAGAGAAAATCGGCCAGTTTTCTCTGCCTGCAGTCCGCATGCCGT…ATTTATGCAGCGGACTGCCTTTCTCCCAAAGTGATAAACCGGACAGTATCATGGACCGGTTTTCCCGGTAATCCGTATTTGCAAGGTTGGTTTCACT; site = the 11-nt target. The procedure:
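Same pooled E. coli target screen (IS621 bridge recombinase, kanamycin selection, control-corrected CPM, mean of 2 biological replicates). Here the two core-binding nucleotides of the LTG and RTG of the bridge RNA target-binding loop are mutated. Target and donor CT cores are held constant, and the other 9 guide positions match the target. The target is read from the library oligo sequence. Molecule = full bridge RNA written as DNA: nt 1-80 from the library oligo, rest WT scaffold.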

Series [2] can be described thus: recombinant barcode read abundance after kanamycin selection (control-corrected) (log10(CPM+1)); higher = more efficient recombination; sequences stand for … in AGTGCAGAGAAAATCGGCCAGTTTTCTCTGCCTGCAGTCCGCATGCCGT…AGATTTATGCAGCGGACTGCCTTTCTCCCAAAGTGATAAACCGGACAGTATCATGGACCGGTTTTCCCGGTAATCCGTATTTGCAAGGTTGGTTTCACT; site = the 11-nt target. The gist of the method: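 IS621 bridge RNA target-binding loops were paired with targets in a pooled library tested in E. coli. After co-electroporation with a donor plasmid, cells were plated in two replicates on chloramphenicol/ampicillin LB agar (control) and on chloramphenicol/ampicillin/kanamycin carrying 0.1 mM IPTG. Barcodes at recombinant junctions were counted as counts per million, averaged and control-corrected to give recombination efficiency. Values are log10(CPM+1).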

“AAACACAAATGGGTTCTAACCTGTTGCCTAG [AAACACACTAG_LTGcore_AA_RTGcore_CT] (site AAACACACTAG) (LTG core: AA, RTG core: CT)”: in series [1], the “recombinant barcode read abundance (log10)” value amounted to 0.0621.

As to “AAACACAATTGGGTTCTAACCTGTTGCCTAG [AAACACACTAG_LTGcore_AT_RTGcore_CT] (site AAACACACTAG) (LTG core: AT, RTG core: CT)”, in series [1], the “recombinant barcode read abundance (log10)” value is 0.375. In the case of “AAACACACCTGGGTTCTAACCTGTTGCCTAG [AAACACACTAG_LTGcore_CC_RTGcore_CT] (site AAACACACTAG) (LTG core: CC, RTG core: CT)”, the “recombinant barcode read abundance (log10)” value in series [1] stood at 0.633. For the sequence “AAACACACGTGGGTTCTAACCTGTTGCCTCG [AAACACACTAG_LTGcore_CG_RTGcore_CG] (site AAACACACTAG) (LTG core: CG, RTG core: CG)”, the “recombinant barcode read abundance (log10)” value in series [1] stood at 0.296. On the same count and under the same terms, the result for “AAACACACTTGGGTTCTAACCTGTTGCCTAT [AAACACACTAG_LTGcore_CT_RTGcore_AT] (site AAACACACTAG) (LTG core: CT, RTG core: AT)” reads 0.39; that for “AAACACATATGGGTTCTAACCTGTTGCCTAG [AAACACACTAG_LTGcore_TA_RTGcore_CT] (site AAACACACTAG) (LTG core: TA, RTG core: CT)”, 0.104; that for “AAACACATATGGGTTCTAACCTGTTGCCTTA [AAACACACTAG_LTGcore_TA_RTGcore_TA] (site AAACACACTAG) (LTG core: TA, RTG core: TA)”, 0.146. The same measure, in the same setting: with “AAACAGTACTGGGTTCTAACCTGTTGCCTGT [AAACAGTCTAG_LTGcore_AC_RTGcore_AC] (site AAACAGTCTAG) (LTG core: AC, RTG core: AC)” the figure was 0.114; with “AAACAGTAGTGGGTTCTAACCTGTTGCCTAG [AAACAGTCTAG_LTGcore_AG_RTGcore_CT] (site AAACAGTCTAG) (LTG core: AG, RTG core: CT)”, 0.0711. “AAACAGTCTTGGGTTCTAACCTGTTGCCTCA [AAACAGTCTAG_LTGcore_CT_RTGcore_TG] (site AAACAGTCTAG) (LTG core: CT, RTG core: TG)”: the “recombinant barcode read abundance (log10)” value in series [1] turned out to be 0.601. Take “AAACAGTCTTGGGTTCTAACCTGTTGCCTGC [AAACAGTCTAG_LTGcore_CT_RTGcore_GC] (site AAACAGTCTAG) (LTG core: CT, RTG core: GC)”: the “recombinant barcode read abundance (log10)” value in series [1] is 1.44. For “AAACAGTCTTGGGTTCTAACCTGTTGCCTTG [AAACAGTCTAG_LTGcore_CT_RTGcore_CA] (site AAACAGTCTAG) (LTG core: CT, RTG core: CA)”, the “recombinant barcode read abundance (log10)” value in series [1] turned out to be 1.28. Turning to “AAACAGTTCTGGGTTCTAACCTGTTGCCTAG [AAACAGTCTAG_LTGcore_TC_RTGcore_CT] (site AAACAGTCTAG) (LTG core: TC, RTG core: CT)”, the “recombinant barcode read abundance (log10)” value in series [1] was 0.0714. On to “AAACATGCGTGGGTTCTAACCTGTTGCCTAG [AAACATGCTAG_LTGcore_CG_RTGcore_CT] (site AAACATGCTAG) (LTG core: CG, RTG core: CT)”, for which the “recombinant barcode read abundance (log10)” value in series [1] was found to be 0.0702. The same measure, in the same setting: with “AAACATGCTTGGGTTCTAACCTGTTGCCTAA [AAACATGCTAG_LTGcore_CT_RTGcore_TT] (site AAACATGCTAG) (LTG core: CT, RTG core: TT)” the figure was 0.344; with “AAACATGCTTGGGTTCTAACCTGTTGCCTCC [AAACATGCTAG_LTGcore_CT_RTGcore_GG] (site AAACATGCTAG) (LTG core: CT, RTG core: GG)”, 0.177.

With “AAACATGCTTGGGTTCTAACCTGTTGCCTGG [AAACATGCTAG_LTGcore_CT_RTGcore_CC] (site AAACATGCTAG) (LTG core: CT, RTG core: CC)”, the “recombinant barcode read abundance (log10)” value in series [1] amounted to 0.713. Consider “AAACATGGATGGGTTCTAACCTGTTGCCTAG [AAACATGCTAG_LTGcore_GA_RTGcore_CT] (site AAACATGCTAG) (LTG core: GA, RTG core: CT)”, for which the “recombinant barcode read abundance (log10)” value in series [1] was found to be 0.0906. For the sequence “AAACATGTATGGGTTCTAACCTGTTGCCTTA [AAACATGCTAG_LTGcore_TA_RTGcore_TA] (site AAACATGCTAG) (LTG core: TA, RTG core: TA)”, the “recombinant barcode read abundance (log10)” value in series [1] turned out to be 0.0913.

In the case of “ACGGGACATTGGGTTCTAACCTGTTGCAGAT [ACGGGACCTCT_LTGcore_AT_RTGcore_AT] (site ACGGGACCTCT) (LTG core: AT, RTG core: AT)”, the “recombinant barcode read abundance (log10)” value in series [1] was 0.134.

On to “ACGGGACCGTGGGTTCTAACCTGTTGCAGCG [ACGGGACCTCT_LTGcore_CG_RTGcore_CG] (site ACGGGACCTCT) (LTG core: CG, RTG core: CG)”, for which the “recombinant barcode read abundance (log10)” value in series [1] is 0.086. Turning to “ACGGGACCTTGGGTTCTAACCTGTTGCAGAA [ACGGGACCTCT_LTGcore_CT_RTGcore_TT] (site ACGGGACCTCT) (LTG core: CT, RTG core: TT)”, in series [1], the “recombinant barcode read abundance (log10)” value is 0.387. Regarding “ACGGGACCTTGGGTTCTAACCTGTTGCAGCT [ACGGGACCTCT_LTGcore_CT_RTGcore_AG] (site ACGGGACCTCT) (LTG core: CT, RTG core: AG)”, in series [1], the “recombinant barcode read abundance (log10)” value was determined as 1.07.

On to “ACGGGACCTTGGGTTCTAACCTGTTGCAGGC [ACGGGACCTCT_LTGcore_CT_RTGcore_GC] (site ACGGGACCTCT) (LTG core: CT, RTG core: GC)”, for which the “recombinant barcode read abundance (log10)” value in series [1] was determined as 0.944. For “ACGGGACTATGGGTTCTAACCTGTTGCAGTA [ACGGGACCTCT_LTGcore_TA_RTGcore_TA] (site ACGGGACCTCT) (LTG core: TA, RTG core: TA)”, the “recombinant barcode read abundance (log10)” value in series [1] came to 0.0155.

“TTGCTAACTTGGGTTCTAACCTGTTGCCT (site TTGCCAACTAG)”: the “recombinant barcode read abundance (log10)” value in series [2] was 0.0109. In the case of “TTGCTAACTTGGGTTCTAACCTGTTGCCT (site TTGCGAACTAG)”, in series [2], the “recombinant barcode read abundance (log10)” value was 0.0431. For “TTGCTAACTTGGGTTCTAACCTGTTGCCT (site TTGCTAACTAG)”, the “recombinant barcode read abundance (log10)” value in series [2] worked out at 0.802. As for “TTGGATACTTGGGTTCTAACCTGTTGCCA (site CATCTACCTCC)”, the “recombinant barcode read abundance (log10)” value in series [2] came to 0.103. On the same count and under the same terms, the result for “TTGGATACTTGGGTTCTAACCTGTTGCCA (site TTGGATACTTG)” reads 1.04; that for “TTGGCCACTTGGGTTCTAACCTGTTGCCT (site TTGGACACTAG)”, 0.0972; that for “TTGGCCACTTGGGTTCTAACCTGTTGCCT (site TTGGCCACTAG)”, 1.08.

For the sequence “TTGGCCACTTGGGTTCTAACCTGTTGCCT (site TTGGGCACTAG)”, the “recombinant barcode read abundance (log10)” value in series [2] was 0.121. With “TTGGCCACTTGGGTTCTAACCTGTTGCCT (site TTGGTCACTAG)”, the “recombinant barcode read abundance (log10)” value in series [2] was 0.0232. Consider “TTGGCCGCTTGGGTTCTAACCTGTTGCCT (site TTGGACGCTAG)”, for which the “recombinant barcode read abundance (log10)” value in series [2] came to 0.109. With “TTGGCCGCTTGGGTTCTAACCTGTTGCCT (site TTGGCCGCTAG)”, the “recombinant barcode read abundance (log10)” value in series [2] is 1.65. Same read-out and setting: with “TTGGCCGCTTGGGTTCTAACCTGTTGCCT (site TTGGGCGCTAG)” the figure was 0.374; with “TTGGCCGCTTGGGTTCTAACCTGTTGCCT (site TTGGTCGCTAG)”, 0.148; with “TTGGGGTCTTGGGTTCTAACCTGTTGCCT (site GTAGGGTCTAG)”, 0.155.

With “TTGGGGTCTTGGGTTCTAACCTGTTGCCT (site TTGGGGTCTAG)”, in series [2], the “recombinant barcode read abundance (log10)” value came out at 1.65.

Regarding “TTGGGTCCTTGGGTTCTAACCTGTTGCGT (site TTGAGTCCTAG)”, the “recombinant barcode read abundance (log10)” value in series [2] stood at 0.15. As for “TTGGGTCCTTGGGTTCTAACCTGTTGCGT (site TTGGGTCCTAC)”, the “recombinant barcode read abundance (log10)” value in series [2] worked out at 3.32.

Turning to “TTGGTCACTTGGGTTCTAACCTGTTGCCA (site GGAAGGCCTAA)”, the “recombinant barcode read abundance (log10)” value in series [2] was 0.0841. Take “TTGGTCACTTGGGTTCTAACCTGTTGCCA (site TTGGTCACTTG)”: in series [2], the “recombinant barcode read abundance (log10)” value was 0.525. “TTGGTCCCTTGGGTTCTAACCTGTTGCCT (site TTGGTACCTAG)”: the “recombinant barcode read abundance (log10)” value in series [2] was found to be 0.565. “TTGGTCCCTTGGGTTCTAACCTGTTGCCT (site TTGGTCCCTAG)”: the “recombinant barcode read abundance (log10)” value in series [2] came to 2.93. Take “TTGGTCCCTTGGGTTCTAACCTGTTGCCT (site TTGGTGCCTAG)”: the “recombinant barcode read abundance (log10)” value in series [2] amounted to 0.0514. As for “TTGGTCCCTTGGGTTCTAACCTGTTGCCT (site TTGGTTCCTAG)”, the “recombinant barcode read abundance (log10)” value in series [2] was found to be 0.131. Turning to “TTGTATACTTGGGTTCTAACCTGTTGCCT (site GTGTCTACTAG)”, in series [2], the “recombinant barcode read abundance (log10)” value worked out at 0.129. Take “TTGTATACTTGGGTTCTAACCTGTTGCCT (site TTGTATACTAG)”: the “recombinant barcode read abundance (log10)” value in series [2] turned out to be 0.612. On to “TTGTGAGCTTGGGTTCTAACCTGTTGCGG (site TTGTAAGCTCG)”, for which, in series [2], the “recombinant barcode read abundance (log10)” value amounted to 0.037. With “TTGTGAGCTTGGGTTCTAACCTGTTGCGG (site TTGTGAGCTCC)”, the “recombinant barcode read abundance (log10)” value in series [2] was found to be 1.15.

The values above are taken from the supplement of paper PMC11208160.
